US20100204119A1, “4-AMINO-5-OXO-7,8-DIHYDROPYRIMIDO[5,4-F][1,4]OXAZEPIN-6(5H)-YL PHENYL DERIVATIVES” (Pfizer Inc, priority 2009, published 2010)

molecular target: T1, Human full-length diacylglycerol:acylCoA acyltransferase 1 (DGAT-1) (Homo sapiens, UniProt O75907); test: In vitro assay for inhibition of DGAT-1 activity (DGAT 1 Reduced Microsome Multidose Assay); conditions: Trial 1 Human IC50, Trial 1: as Trial 4 except microsomes at 25 μg/mL instead of 5 μg/mL; average where n > 1
T1 sequence (O75907 1-488): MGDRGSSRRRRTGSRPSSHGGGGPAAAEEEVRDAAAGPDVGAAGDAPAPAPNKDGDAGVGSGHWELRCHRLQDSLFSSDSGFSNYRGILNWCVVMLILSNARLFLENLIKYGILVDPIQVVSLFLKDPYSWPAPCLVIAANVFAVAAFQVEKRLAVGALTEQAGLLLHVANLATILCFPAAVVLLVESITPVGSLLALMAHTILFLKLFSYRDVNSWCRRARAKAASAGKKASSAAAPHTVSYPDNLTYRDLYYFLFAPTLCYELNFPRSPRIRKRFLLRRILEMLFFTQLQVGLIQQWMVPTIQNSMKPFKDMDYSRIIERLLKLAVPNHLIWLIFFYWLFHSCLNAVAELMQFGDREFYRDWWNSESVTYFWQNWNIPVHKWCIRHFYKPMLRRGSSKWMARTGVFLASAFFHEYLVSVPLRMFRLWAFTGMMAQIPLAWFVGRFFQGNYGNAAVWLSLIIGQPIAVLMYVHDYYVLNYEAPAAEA
Description: Human full-length diacylglycerol:acylCoA acyltransferase 1 (DGAT-1) was expressed in Sf9 insect cells which are then lysed and a crude membrane fraction (105,000×g pellet) was prepared.
Inhibitors in DMSO were pre-incubated with membranes before initiating the DGAT-1 reaction by the addition of decanoylCoA. […] The inhibitors were present at a range of eight concentrations to generate an apparent IC50 for each compound. […] Specifically, the eight concentrations used were 3 μM, 1 μM, 300 nM, 100 nM, 30 nM, 10 nM, 3 nM and 1 nM.
The reactions were allowed to proceed for 1.5 hours at room temperature and then terminated by the addition of 20 μl of EDTA (40 mM). Reaction mixture is then mixed by trituration with 30 μl of Microscint™-E (Perkin Elmer). […] Four separate trials were conducted. The method of analysis of Trial 1 was the same as Trial 4 (described above) except microsomes were utilized at 25 μg/mL instead of 5 μg/mL. The method of analysis of Trial 2 was the same as Trial 4 (described above) except eleven (11) concentrations of inhibitor were employed instead of eight (8). The method of analysis of Trial 3 was the same as Trial 2 except the compounds were serially diluted in a different laboratory.
Where this DGAT-1 inhibition assay was performed on a compound more than once, an average is provided for that compound.

Row | IC50 | Compound
1 | 39.3 nM | CC(O)C1CCN(C(=O)C[C@H]2CC[C@H](c3ccc(N4CCOc5ncnc(N)c5C4=O)cc3)CC2)CC1 (stereo partly shown) [Example 6P]
2 | 47.2 nM | C[C@@H]1COCCN1C(=O)C[C@H]1CC[C@H](c2ccc(N3CCOc4ncnc(N)c4C3=O)cc2)CC1 [Example 6BD]
3 | 105 nM | Nc1ncnc2c1C(=O)N(c1ccc([C@H]3CC[C@H](CC(=O)N4CCNC(=O)CC4)CC3)cc1)CCO2 [Example 6AL]
4 | 60.1 nM | CO[C@@H]1CCN(C(=O)C[C@H]2CC[C@H](c3ccc(N4CCOc5ncnc(N)c5C4=O)cc3)CC2)C1 [Example 6BA]
5 | 75.5 nM | CC1(C)C(=O)NCCN1C(=O)C[C@H]1CC[C@H](c2ccc(N3CCOc4ncnc(N)c4C3=O)cc2)CC1 [Example 6AE]
6 | 192 nM | CC(=O)N[C@@H]1CCN(C(=O)C[C@H]2CC[C@H](c3ccc(N4CCOc5ncnc(N)c5C4=O)cc3)CC2)C1 [Example 6S]
7 | 67 nM | CCC(C)CN(CCO)C(=O)C[C@H]1CC[C@H](c2ccc(N3CCOc4ncnc(N)c4C3=O)cc2)CC1 (stereo partly shown) [Example 6AH]
8 | 65.5 nM | CCCN(CCO)C(=O)C[C@H]1CC[C@H](c2ccc(N3CCOc4ncnc(N)c4C3=O)cc2)CC1 [Example 6AJ]
9 | 60.1 nM | Nc1ncnc2c1C(=O)N(c1ccc([C@H]3CC[C@H](CCC(=O)N4CCOCC4)CC3)cc1)CCO2 [Example 6BF]
10 | 47.4 nM | CCN(Cc1nccn1C)C(=O)C[C@H]1CC[C@H](c2ccc(N3CCOc4ncnc(N)c4C3=O)cc2)CC1 [Example 6AS]
11 | 85.3 nM | Nc1ncnc2c1C(=O)N(c1ccc([C@H]3CC[C@H](CC(=O)N4CCCCC4CCO)CC3)cc1)CCO2 (stereo partly shown) [Example 6AY]
12 | 51 nM | COCCN(C)C(=O)C[C@H]1CC[C@H](c2ccc(N3CCOc4ncnc(N)c4C3=O)cc2)CC1 [Example 6J]
13 | 45.7 nM | Nc1ncnc2c1C(=O)N(c1ccc([C@H]3CC[C@H](CC(=O)N4CCCC(CO)C4)CC3)cc1)CCO2 (stereo partly shown) [Example 6M]
14 | 75.5 nM | CC(c1ccncc1)N(C)C(=O)C[C@H]1CC[C@H](c2ccc(N3CCOc4ncnc(N)c4C3=O)cc2)CC1 (stereo partly shown) [Example 6AU]

same assay, conditions: Trial 2 Human IC50, Trial 2: as Trial 4 except eleven concentrations of inhibitor instead of eight; average where n > 1

Row | IC50 | Compound
15 | 196 nM | Nc1ncnc2c1C(=O)N(c1ccc(C3CCN(C(=O)CC4CCCOC4)CC3)cc1)CCO2 (stereo not shown) [Example 7E]
16 | 88.2 nM | Cc1ocnc1C(=O)N1CCC(c2ccc(N3CCOc4ncnc(N)c4C3=O)cc2)CC1 [Example 7G]
17 | 114 nM | Nc1ncnc2c1C(=O)N(c1ccc(C3CCN(C(=O)CC4CCOC4)CC3)cc1)CCO2 (stereo not shown) [Example 7M]
18 | 14.1 nM | Nc1ncnc2c1C(=O)N(c1ccc([C@H]3CC[C@H](CCO)CC3)cc1)CCO2 [Example 1E, 4-amino-6-{4-[trans-4-(2-hydroxyethyl)cyclohexyl]phenyl}-7,8-dihydropyrimido[5,4-f][1,4]oxazepin-5(6H)-one]
19 | 50.1 nM | Nc1ncnc2c1C(=O)N(c1ccc(C3CCN(C(=O)CC4CCCO4)CC3)cc1)CCO2 (stereo not shown) [Example 7R]

same assay, conditions: Trial 3 Human IC50, Trial 3: as Trial 2 except compounds serially diluted in a different laboratory; average where n > 1

Row | IC50 | Compound
20 | 300 nM | Nc1ncnc2c1C(=O)N(c1ccc(C3CCN(C(=O)CC4CCCOC4)CC3)cc1)CCO2 (stereo not shown) [Example 7E]
21 | 290 nM | Cc1ocnc1C(=O)N1CCC(c2ccc(N3CCOc4ncnc(N)c4C3=O)cc2)CC1 [Example 7G]
22 | 180 nM | Nc1ncnc2c1C(=O)N(c1ccc(C3CCN(C(=O)CC4CCOC4)CC3)cc1)CCO2 (stereo not shown) [Example 7M]
23 | 9.75 nM | Nc1ncnc2c1C(=O)N(c1ccc([C@H]3CC[C@H](CCO)CC3)cc1)CCO2 [Example 1E, 4-amino-6-{4-[trans-4-(2-hydroxyethyl)cyclohexyl]phenyl}-7,8-dihydropyrimido[5,4-f][1,4]oxazepin-5(6H)-one]
24 | 170 nM | Nc1ncnc2c1C(=O)N(c1ccc(C3CCN(C(=O)CC4CCCO4)CC3)cc1)CCO2 (stereo not shown) [Example 7R]

same assay, conditions: Trial 4 Human IC50, Trial 4: eight concentrations of inhibitor, microsomes 5 μg/mL; average where n > 1

Row | IC50 | Compound
25 | 161 nM | COC(=O)c1ccc(N2C[C@@H](C)Oc3ncnc(N)c3C2=O)cc1 [Example 1J, Methyl 4-[(8R)-4-amino-8-methyl-5-oxo-7,8-dihydropyrimido[5,4-f][1,4]oxazepin-6(5H)-yl]benzoate]
26 | 104 nM | C[C@@H]1CN(c2ccc(CC(C)(C)O)cc2)C(=O)c2c(N)ncnc2O1 [Example 1AN]
27 | 8.1 nM | Cc1noc(C[C@H]2CC[C@H](c3ccc(N4C[C@@H](C)Oc5ncnc(N)c5C4=O)cc3)CC2)n1 [Example 2C]
28 | 61.4 nM | C[C@@H]1CN(c2ccc(C(C)(C)O)cc2)C(=O)c2c(N)ncnc2O1 [Example 1A-2, (8R)-4-amino-6-(4-(2-hydroxypropan-2-yl)phenyl)-8-methyl-7,8-dihydropyrimido[5,4-f][1,4]oxazepin-5(6H)-one]
29 | 32.5 nM | COC(=O)C(C)(C)c1ccc(N2C[C@@H](C)Oc3ncnc(N)c3C2=O)cc1 [Example 1X]
30 | 6.78 nM | CC(C)Cc1ccc(N2C[C@@H](C)Oc3ncnc(N)c3C2=O)cc1 [Example 1Y, (8R)-4-amino-6-(4-isobutylphenyl)-8-methyl-7,8-dihydropyrimido[5,4-f]-[1,4]oxazepin-5(6H)-one]
31 | 55.4 nM | C[C@@H]1CN(c2ccc([C@@H](O)C(C)(C)C)cc2)C(=O)c2c(N)ncnc2O1 [Example 1AC]
32 | 37.7 nM | C[C@@H]1CN(c2ccc(C(O)C(F)(F)F)cc2)C(=O)c2c(N)ncnc2O1 (stereo partly shown) [Example 1R]
33 | 313 nM | C[C@@H]1CN(c2ccc(CC(N)=O)cc2)C(=O)c2c(N)ncnc2O1 [Example 1AM, (8R)-2-(4-(4-amino-8-methyl-5-oxo-7,8-dihydropyrimido[5,4-f][1,4]oxazepin-6(5H)-yl)phenyl)acetamide]
34 | 44.5 nM | COc1nc(N)c2c(n1)O[C@H](C)CN(c1ccc(C(C)(C)C)cc1)C2=O [Example 1N]
35 | 52.8 nM | Cc1ccc(N2C[C@@H](C)Oc3ncnc(N)c3C2=O)cc1 [Example 1P, (8R)-4-amino-8-methyl-6-(4-methylphenyl)-7,8-dihydropyrimido[5,4-f]-[1,4]oxazepin-5(6H)-one]
36 | 46.1 nM | C[C@@H]1CN(c2ccc(C(C)(C)F)cc2)C(=O)c2c(N)ncnc2O1 [Example 1L, (8R)-4-amino-6-[4-(1-fluoro-1-methylethyl)phenyl]-8-methyl-7,8-dihydropyrimido[5,4-f][1,4]oxazepin-5(6H)-one]
37 | 13.7 nM | CCc1ccc(N2C[C@@H](C)Oc3ncnc(N)c3C2=O)cc1 [Example 1M, (8R)-4-amino-6-(4-ethylphenyl)-8-methyl-7,8-dihydropyrimido[5,4-f]-[1,4]oxazepin-5(6H)-one]
